Measurements published in patent US20230143490A1, “METHODS OF TREATING SOIL” (Taminco BV, priority 2020, published 2023).

Experiments:
[1] = system: F. oxysporum f. sp. cubense; assay: Panama disease analysis of field soil samples after metam sodium injection (plating on Komada medium); format: in vivo, Fusarium oxysporum f. sp. cubense Tropical Race 4; conditions: any of the treated groups; any day post application
Experimental: (§1) Metam Sodium Application. Metam sodium 510 SL (equivalent to 42% w/w) was applied to soil at the following doses: 0 liters per hectare (L/ha), 750 L/ha, 1500 L/ha, 2250 L/ha, 3000 L/ha.
(§2) Prior to injection, soil was prepared using a rototiller to break the soil structure from 0 cm to 80 cm deep, allowing for the smooth and even injection application by an injection machine. The soil was then leveled and made uniform, and the metam sodium was applied at two depths: 30 cm and 60 cm, using injection methods. The temperature was at a minimum of 10° C. and soil humidity was between 50 and 60% holding capacity, allowing the applied product to transform from metam sodium (liquid) to MITC (gas).
(§3) The application was made using an injection machine wherein the machine lowered shanks and began moving forward such that the shanks lowered to a depth of 60 cm and injectors applied the metam sodium into the soil. When the injection at 60 cm was complete, the process was repeated for the entire field at 30 cm. The treated soil in the field was then sealed using a packer roller (which was part of the injection machinery, located at the back end of the machine), after each application.
Soil Analysis. Soil samples were obtained at 20, 40, and 60 cm before application and every 24 hours beginning 48 hours after application, for seven days.
Plant Pathology Analysis. […]

Foc TR4 chlamydospores = assay: In vitro efficacy of metam sodium on Foc TR4 chlamydospores (colony growth on PDA plates); format: cell-based, Fusarium oxysporum f. sp. cubense Tropical Race 4
Experimental: Foc TR4 chlamydospores were extracted from infested soil and incubated with a dilution series of metam sodium for 5 min and 60 min at room temperature. Thereafter, the samples were diluted 10× to get reduction of the treatment and sufficient dilution of chlamydospores to avoid lack of resolution when grown on plate. Aliquots of 100 μl were plated on PDA plates in duplicate and incubated for 3 days at 25° C. Plates were photographed and scored.

Cavendish banana plants = assay: Field trial: banana plant growth and development after metam sodium soil injection at 30 cm and 60 cm; format: in vivo, Musa (Cavendish banana)
Experimental: as §1, §2, §3
Plant Selection and Transplantation. Cavendish banana plants were used for this investigation. In order to avoid plants already contaminated by other soil, all plants were produced in vitro using art-recognized methods. Plants were transplanted into the field 14 days after the final soil reading was taken (21 days after treatment).
Data Gathering. Data were gathered at monthly intervals beginning three months after banana plants were transplanted. A total of three data collection sessions were conducted. Data including the number of leaves, plant height, and girth size were collected.

[2] = 750 L/ha, six months after treatment
[3] = 1500 L/ha, six months after treatment
[4] = 2250 L/ha, six months after treatment
[5] = 3000 L/ha, six months after treatment

SMILES: CNC(=S)S [metam sodium, sodium N-methyldithiocarbamate]
- soil contamination: Foc TR4 detection [1]: No Foc TR4 was detected
- reducing the number of surviving chlamydospores, measured as growing colonies (Foc TR4 chlamydospores; 100× dilution, prolonged incubation (60 min vs 5 min)): more effective
- efficacy on Foc TR4 colony growth (Foc TR4 chlamydospores; dilution of 10×, incubation time 5 minutes): effective
- efficacy on Foc TR4 colony growth (Foc TR4 chlamydospores; dilution of 100×, 5 and 60 minutes): less effective
- reduction in viability of Foc TR4 chlamydospores (Foc TR4 chlamydospores; first test, dilutions from 1000 up to 10×10^6-fold, 60 min): No significant reduction in viability
- efficacy against Foc TR4 chlamydospores (Foc TR4 chlamydospores; in vitro conditions, dependent on high concentrations): effective against Foc TR4 chlamydospores
- efficacy on chlamydospore survival (Foc TR4 chlamydospores; second test, 10× and 100× dilutions): (partially) effective
- number of chlamydospores that survived (Foc TR4 chlamydospores; second test, dilutions of 1000× and more): did not affect the number of chlamydospores that survived
- average girth size of banana plant, increase (Cavendish banana plants; 750 L/ha): ~1 cm
- average height of banana plant, increase (Cavendish banana plants; 750 L/ha): ~5 cm
- percent of plants at either shooting or bagging stage (Cavendish banana plants; [2]): 11%
- percent of plants at shooting stage (Cavendish banana plants; [2]): 9%
- plants reaching bagging stage (Cavendish banana plants; [2]): did not have a meaningful effect
- average girth size of banana plant, increase (Cavendish banana plants; 1500-3000 L/ha): 4-6 cm
- average height of banana plant, increase (Cavendish banana plants; 1500-3000 L/ha): 20-23 cm
- percent of plants at either shooting or bagging stage (Cavendish banana plants; [3]): 28%
- percent of plants at shooting stage (Cavendish banana plants; [3]): 10%
- percent of plants at bagging stage (Cavendish banana plants; 1500 to 3000 L/ha, six months after treatment): 11-19%
- percent of plants at either shooting or bagging stage (Cavendish banana plants; [4]): 27%
- percent of plants at shooting stage (Cavendish banana plants; [4]): 17%
- percent of plants at either shooting or bagging stage (Cavendish banana plants; [5]): 35%
- percent of plants at shooting stage (Cavendish banana plants; [5]): 22%
- average number of leaves, increase (Cavendish banana plants; regardless of dose applied (750-3000 L/ha), vs 0 L/ha): roughly 1.5 fold
